Tests used:
[1] = system: vitamin D-deficient rats; assay: Bone calcium mobilization response (serum calcium, OCPC method) in vitamin D-deficient rats; assay type: in vivo; conditions: intrajugular, 24 hours after administration, Mean ± SD (N = 4 ~ 6)
Experimental: Blood was collected after 24 hours, and the concentration of calcium in serum was determined by the OCPC (orthocresolphthalein complexon) method.

[2] = system: human premyeloblast leukemia cells (HL-60); assay: Proliferation-suppression rate of HL-60 cells (Coulter counter, 4 days cultivation); assay type: cell-based; conditions: 96 h, HL-60, 4 days; for inhibition at 0.1 ng/mL: Concn. 0.1 ng/mL; for inhibition at 1 ng/mL: Concn. 1 ng/mL; for inhibition at 10 ng/mL: Concn. 10 ng/mL
Experimental: An HL-60 cell fluid adjusted to a concentration of 5 x 10^4 cells/ml was incorporated with each of the agents to be tested and cultivated in a carbon dioxide incubator at 37°C for 4 days. After the cultivation, the number of cells was measured by means of a Coulter counter. The percentage of the number thus measured relative to the number of cells in an untreated group was calculated, from which the proliferation-suppression rate was obtained.

[3] = system: vitamin D-deficient rats; assay: Intestinal calcium transport response (method of Martin and DeLuca) in vitamin D-deficient rats; assay type: in vivo; conditions: intrajugular, 24 hours after administration, Mean ± SD (N = 4 ~ 6)
[4] = system: human premyeloblast leukemia cells (HL-60); assay: NBT reduction (differentiation of HL-60 cells into macrophages); assay type: cell-based; conditions: HL-60, 4 days, control 0.5
Experimental: Thereafter, the cells were smeared onto a slide glass, subjected to Giemsa staining, and the coloration of the cells was examined under a microscope. The number of cells containing intracellular blue-black formazan deposits was measured for 200 cells, and the results were expressed in terms of the percentage of NBT reduction-positive cells.

[5] = dose 50 pmol/100 g body wt., control 4.8 ± 0.29
[6] = dose 50 pmol/100 g body wt., control 2.6 ± 0.27
[7] = dose 650 pmol/100 g body wt., control 4.8 ± 0.31
[8] = dose 650 pmol/100 g body wt., control 2.5 ± 0.30

SMILES | Serum calcium [1, 5] [mg/100 ml] | inhibition at 0.1 ng/mL [2] [%] | inhibition at 1 ng/mL [2] [%] | inhibition at 10 ng/mL [2] [%] | Intestinal calcium transport (Ca [S/M]) [3, 6] | NBT reduction rate ([4]; Concn. 0.1 µg/ml) [%] | NBT reduction rate ([4]; Concn. 1 µg/ml) [%] | NBT reduction rate ([4]; Concn. 10 µg/ml) [%] | Serum calcium [1, 7] [mg/100 ml] | Intestinal calcium transport (Ca [S/M]) [3, 8]
C=C1/C(=C\C=C2/CCC[C@]3(C)[C@@H]([C@H](C)CC[C@@H](O)C(O)(C(F)(F)F)C(F)(F)F)CC[C@@H]23)C[C@@H](O)C[C@@H]1O [Compound 6b, 24(R)-26,26,26,27,27,27-hexafluoro-1α,24,25-trihydroxyvitamin-D3] | 6.3 ± 0.55 | 50.2 | 84.7 | 90.4 | 8.9 ± 2.81 Ca [S/M] | 32.0 | 79.5 | 83.5 |  | 
C=C1/C(=C\C=C2/CCC[C@]3(C)[C@@H]([C@H](C)C[C@@H](O)CC(O)(C(F)(F)F)C(F)(F)F)CC[C@@H]23)C[C@@H](O)C[C@@H]1O [Compound 28a, 23(R)-26,26,26,27,27,27-hexa-fluoro-1α,23,25-trihydroxyvitamin D3] |  | 19.8 | 76.4 | 92.2 |  | 6.5 | 60.5 | 80.0 | 7.2 ± 0.67 | 6.3 ± 1.88 Ca [S/M]
C=C1/C(=C\C=C2/CCC[C@]3(C)[C@@H]([C@H](C)CCC(=O)C(O)(C(F)(F)F)C(F)(F)F)CC[C@@H]23)C[C@@H](O)C[C@@H]1O [Compound 10, la,25-dihydroxy-26,26,26,27,27,27-hexafluoro-24-oxovitamin D3] | 6.5 ± 0.40 | 45.9 | 78.6 | 89.9 | 6.5 ± 1.92 Ca [S/M] | 12.5 | 46.0 | 82.5 |  | 
C=C1/C(=C\C=C2/CCC[C@]3(C)[C@@H]([C@H](C)CC[C@H](O)C(O)(C(F)(F)F)C(F)(F)F)CC[C@@H]23)C[C@@H](O)C[C@@H]1O [Compound 6a, 24(S)-26,26,26,27,27,27-hexa-fluoro-la,24,25-trihydroxyvitamin D3] |  | 30.7 | 74.9 | 83.7 |  | 8.0 | 55.0 | 86.0 |  | 
C=C1/C(=C\C=C2/CCC[C@]3(C)[C@@H]([C@H](C)C[C@H](O)CC(O)(C(F)(F)F)C(F)(F)F)CC[C@@H]23)C[C@@H](O)C[C@@H]1O [Compound 28b, 23(S)-26,26,26,27,27,27-hexa-fluoro-1α,23,25-trihydroxyvitamin D3] |  | 22.8 | 67.3 | 86.9 |  | 2.0 | 60.0 | 81.0 | 5.6 ± 0.60 | 5.7 ± 1.92 Ca [S/M]
C=C1/C(=C\C=C2/CCC[C@]3(C)[C@@H]([C@H](C)CCCC(C)(C)O)CC[C@@H]23)C[C@@H](O)C[C@@H]1O [1α,25-(OH)2D3, 1α,25-Dihydroxyvitamin D3, reference compound] | 5.5 ± 0.30 | 6.2 | 36.1 | 72.4 | 3.4 ± 0.72 Ca [S/M] | 1.0 | 16.5 | 56.5 | 8.5 ± 0.59 | 3.6 ± 0.52 Ca [S/M]

Source: patent publication EP0250755A2, “Fluorine derivatives of vitamin D3 and process for producing the same” (SUMITOMO PHARMACEUTICALS COMPANY, LIMITED, priority 1986, dated 1988)
